Data from patent publication EP0429333B1, “Process for producing oxazopyrroloquinolines, novel oxazopyrroloquinolines, and use of oxazopyrroloquinolines” (priority 1989, dated 1991).

What was measured:
[1] = Solubility of the isolated compound, described in words; assay type: physicochemical; details: for solubility in water / solubility under neutral and alkaline conditions: water
[2] = target: aldose reductase of kidney (Canis lupus familiaris, UniProt A0A8I3P2L6); assay: Inhibitory effect on aldose reductase of kidney; assay type: biochemical, dog; details: read-out: Degree of inhibition for aldose reductase (%); for inhibition at 10 µM: concentration 1x10^-5 M; for inhibition at 1 µM: concentration 1x10^-6 M; for inhibition at 2 µM: concentration 2x10^-6 M; for inhibition at 5 µM: concentration 5x10^-6 M; for inhibition at 0.5 µM: concentration 5x10^-7 M
Procedure: Medulla of kidney of dog was homogenized with 10mM phosphoric acid buffer (pH 7.0) containing 2mM dithiothreitol in an amount of four times the volume of kidney medulla and subjected to centrifugation. The supernatant liquid was purified by affinity chromatography, gel filtration and chromatofocusing to obtain electrophoretically homogeneous aldose reductase. 0.05 ml of 3mM NADPH, 0.1 ml of DL-glyceraldehyde and 0.04 ml of distilled water were added to 0.8 ml of 0.1M phosphoric acid buffer (pH 6.2) and left to stand at 25°C for 3 minutes. Then, 0.01 ml of the aldose reductase solution was added thereto to start reaction and decreasing of absorbance of 340 nm was measured at 25°C with time. Amount of enzyme which consumes 1 µmole of NADPH for 1 minute was taken as 1 unit.

[3] = system: kidney; assay: Toxicity to kidney determined by blood examination; assay type: in vivo, mice; details: conclusion from the blood examinations (a) and (b)
Procedure: After one day from administration, the mice were fasted (only water was given) and after lapse of 18 hours, blood was collected and serum was obtained therefrom. Glucose, urea nitrogen and creatinine in the serum were examined using FUJI Dry Chemslide (manufactured by Fuji Photo Film Co., Ltd.). […]
Thereafter, the mice were fasted (with giving only water) and after lapse of 18 hours, blood was collected and serum was obtained therefrom. Contents of glucose, urea nitrogen and creatinine in serum were obtained using FUJI Dry Chemslide. The results were shown by average value for eight mice.

Structure (SMILES)	solubility in acetone and diethyl ether [1]	solubility in lower alcohols [1]	solubility in water [1]	solubility under neutral and alkaline conditions [1]	inhibition at 10 µM [2]	inhibition at 1 µM [2]	inhibition at 2 µM [2]	inhibition at 5 µM [2]	inhibition at 0.5 µM [2]	inhibition at 0.1 µM ([2]; concentration 1x10^-7 M)	inhibition at 0.2 µM ([2]; concentration 2x10^-7 M)	toxicity to kidney [3]
O=C(O)c1cc(C(=O)O)c2c(n1)C(=O)C(=O)c1cc(C(=O)O)[nH]c1-2 [PQQ, pyrroloquinolinequinone, reference compound]					64.4%		17.3%	42.8%				showed toxicity to kidney
O=C(O)c1cc(C(=O)O)c2c(n1)c1nc(Cc3ccc(O)cc3)oc1c1cc(C(=O)O)[nH]c12 [4-Hydroxybenzyl OPQ, 5-(4-Hydroxybenzyl)-2,8,10-tricarboxy-1H-oxazo[5,4-h]-pyrrolo[2,3-f]quinoline]	did not dissolve	dissolved	easily soluble	especially soluble	89%	38.6%	49.4%	71.3%				
Cc1nc2c3nc(C(=O)O)cc(C(=O)O)c3c3[nH]c(C(=O)O)cc3c2o1 [Methyl OPQ, 5-Methyl-2,8,10-tricarboxy-1H-oxazo[5,4-h]-pyrrolo-[2,3-f]quinoline]	did not dissolve	dissolved	easily soluble	very easily soluble		92.1%			73.6%	25%	31.4%	

Further lines, with some results ahead:

solubility in acetone and diethyl ether [1]	solubility in lower alcohols [1]	solubility in water [1]	solubility under neutral and alkaline conditions [1]	inhibition at 10 µM [2]	inhibition at 1 µM [2]	inhibition at 2 µM [2]	inhibition at 5 µM [2]	inhibition at 0.5 µM [2]	inhibition at 0.1 µM ([2]; concentration 1x10^-7 M)	inhibition at 0.2 µM ([2]; concentration 2x10^-7 M)	Structure (SMILES)	toxicity to kidney [3]
did not dissolve	dissolved	easily soluble	very easily soluble	58.5%	48%	49.9%	55%	22.5%			O=C(O)CCc1nc2c3nc(C(=O)O)cc(C(=O)O)c3c3[nH]c(C(=O)O)cc3c2o1 [2-Carboxyethyl OPQ, 5-(2-Carboxyethyl)-2,8,10-tricarboxy-1H-oxazo[5,4-h]-pyrrolo[2,3-f]quinoline]	
did not dissolve	dissolved	easily soluble	very easily soluble		59.6%	75.7%	89.1%	44.7%			NC(=O)CCc1nc2c3nc(C(=O)O)cc(C(=O)O)c3c3[nH]c(C(=O)O)cc3c2o1 [2-Carbamoylethyl OPQ, 5-(2-Carbamoylethyl)-2,8,10-tricarboxy-1H-oxazo[5,4-h]-pyrrolo[2,3-f]quinoline]	
